Source: publication PMC6716272, “In Vivo and In Vitro Analyses of Novel Peptidomimetic Disruptors for the Serotonin 5-HT2C Receptor Interaction With Phosphatase and Tensin Homolog” (Frontiers in Pharmacology, 2019)

Columns and labels:
[1] = test system: lorcaserin–saline-trained rats; assay: Two-lever drug discrimination, lorcaserin (0.75 mg/kg) vs saline; format: in vivo, rat
Procedure: (§1) Experimentally naïve male Sprague-Dawley rats (n = 43; Envigo, Inc.) weighing 300–325 g at the beginning of the experiment were housed two per cage in a temperature- (21–23°C) and humidity- (45–50%) controlled environment; lighting was maintained under a 12-h light–dark cycle (0700–1900 h). Rats were maintained at 80–90% of their free-feeding weights by restricting access to water. Rats received water during daily training sessions (5–6 ml/rat/session), in the afternoon several hours after training (20 min), and over the weekend (36 h). Experiments were conducted during the light phase of the light–dark cycle (between 0900 and 1200 h) and were carried out in accordance with the National Institutes of Health Guide for the Care and Use of Laboratory Animals and with the approval of the Institutional Animal Care and Use Committee at University of Texas Medical Branch.
(§2) The procedures were conducted in commercially available two-lever operant chambers (Med Associates, St. Albans, VT). Each chamber was equipped with a water-filled dispenser mounted equidistantly between two retractable response levers on the wall and housed in a light- and soundproof cubicle. Illumination came from a 28-V house light; ventilation and masking noise were provided by a ventilation fan in the right-side wall. A computer with Med-PC IV software was used to run programs and record all experimental events.
(§3) Standard two-lever, water-reinforced drug discrimination procedures were used ([Appel and Cunningham, 1986]; [Callahan and Cunningham, 1995]; [Colpaert, 1999]). Three cohorts (n = 13–16/cohort) were trained to discriminate an injection of a training drug from saline (1.0 ml/kg, i.p.) administered 15 min before start of daily (Monday–Friday) training sessions. In one cohort (n = 14), rats were trained to discriminate the training drug lorcaserin (0.75 mg/kg, 1.0 ml/kg, i.p.) from saline. In a second cohort (n = 13), rats were trained to discriminate the training drug WAY163909 (0.75 mg/kg, 1.0 ml/kg, i.p.) from saline. In the third cohort, rats (n = 16) were trained to discriminate the training drug cocaine (5 mg/kg, 1.0 ml/kg, i.p.) from saline. Two rats in the lorcaserin–saline cohort were excluded from the present study due to failure to maintain the discrimination. Rats in the WAY163909–saline cohort also participated in additional studies ([Wild et al., 2018]); the WAY163909 dose–response curve was reevaluated between studies; a washout period was allowed, and no carryover effects were observed.
(§4) During this phase, only the stimulus-appropriate (drug or saline) lever was present. Training began under a fixed ratio 1 (FR 1) schedule of water reinforcement, and the FR requirement was incremented until all animals were responding reliably under an FR 20 schedule for each experimental condition. For half of the rats, left lever responses were reinforced after training drug administration, whereas right lever responses were reinforced after saline administration; conditions were reversed for the remaining animals. During this phase of training, drug and saline were administered irregularly with the restriction that neither condition prevailed for more than three consecutive sessions.
(§5) After responding stabilized, both levers were presented simultaneously during 15-min training sessions. The rats were required to respond on the stimulus-appropriate (correct) lever to obtain water reinforcement. There were no programmed consequences for responding on the incorrect lever. This phase of training continued until the performance of all rats attained criterion (defined as mean accuracies of at least 80% stimulus-appropriate responding for 10 consecutive sessions).
(§6) Test sessions were initiated and conducted once or twice per week following attainment of criterion. Training sessions were run during the intervening days to maintain discrimination accuracy. […]

[2] = test system: WAY163909–saline-trained rats; assay: Two-lever drug discrimination, WAY163909 (0.75 mg/kg) vs saline; format: in vivo, rat
Procedure: as §1, §2, §3, §4, §5, §6

[3] = test system: cocaine–saline-trained rats; assay: Two-lever drug discrimination, cocaine (5 mg/kg) vs saline; format: in vivo, rat
Procedure: as §1, §2, §3, §4, §5, §6

[4] = effect mimicked by Ro-600175 and reversed by SB242084; ref Ji et al., 2006; cited from earlier work
Excerpt: (§7) Agonist binding to the 5-HT2CR results in dynamic changes in receptor conformation and induction of a variety of intracellular signaling pathways ([Berg et al., 1994]; [McGrew et al., 2002]; [Werry et al., 2005]; [Labasque et al., 2008]). Best characterized is coupling of the 5-HT2CR to Gαq/11 proteins to activate phospholipase Cβ (PLCβ), resulting in increased intracellular calcium (Cai ^2+) release, among various other signaling outcomes ([Millan et al., 2008]). One approach to selectively target the 5-HT2CR signaling is through protein–protein interactions that are selective for 5-HT2CR ove ...

rats = conditions: TAT-r3L4F 0.1 µmol/kg; ref Cunningham et al., 2011; Anastasio et al., 2013; cited from earlier work
Excerpt: as §7

Ac-YGRKKRRPNPDQKPRRKKKEKR-NH2 [TAT-r3L4F, rat 5-HT2CR third-loop peptide r3L4F conjugated to TAT at the N terminus]
drug-lever responding in combination with lorcaserin (0.5 mg/kg) ([1]; combination test, i.p., TAT-r3L4F 2 µmol/kg (p < 0.05), peptide 7 2, 5 µmol/kg): enhanced drug-lever responding
response rate in combination with lorcaserin (0.5 mg/kg) ([1]; combination test, i.p., TAT-r3L4F 2 µmol/kg, peptide 7 2, 5 µmol/kg): no change in response rates
drug-like responding ([1]; substitution test, i.p., TAT-r3L4F 1, 2 µmol/kg, peptide 7 1, 2, 5 µmol/kg (data not shown)): < 10%
response rate in substitution test ([1]; vs previous lorcaserin maintenance session, WAY163909 0.75 mg/kg, TAT-r3L4F 2 µmol/kg (trend for 1 µmol/kg)): significantly higher
response rate in combination with WAY163909 (0.5 mg/kg) ([2]; combination test, TAT-r3L4F 1, 2 µmol/kg i.p.): no change in response rates
drug-lever responding in combination with WAY163909 (0.5 mg/kg) ([2]; combination test, TAT-r3L4F 1, 2 µmol/kg i.p., p < 0.05): enhanced drug-lever responding
response rate in substitution test ([2]; lorcaserin 1 mg/kg (vs saline), TAT-r3L4F 1, 2 µmol/kg (vs previous WAY163909 maintenance session)): significantly higher
drug-like responding ([2]; substitution test, TAT-r3L4F 1, 2 µmol/kg i.p.): < 10%
stimulus effects of cocaine (2.5 mg/kg) and response rate, TAT-r3L4F in the absence of lorcaserin ([3]; TAT-r3L4F 1, 2 µmol/kg i.p. 45 min before test): did not alter the stimulus effects of cocaine or the associated response rate
cocaine-appropriate responding, TAT-r3L4F plus lorcaserin (0.5 mg/kg) before cocaine (2.5 mg/kg) ([3]; TAT-r3L4F 1, 2 µmol/kg, p < 0.05 vs cocaine alone, not statistically different from lorcaserin alone plus cocaine): significantly reduced cocaine-appropriate responding
lever responding in substitution test (low-dose series) ([3]; TAT-r3L4F alone 1, 2 µmol/kg, lorcaserin alone 0.5 mg/kg, data not shown): saline-appropriate responding
response rates associated with cocaine (2.5 mg/kg) ([3]; lorcaserin alone 0.5 mg/kg, or TAT-r3L4F 1, 2 µmol/kg plus lorcaserin 0.5 mg/kg, p < 0.05): significantly suppressed the response rates
response rate in substitution test (low-dose series) ([3]; vs previous cocaine maintenance session, TAT-r3L4F alone 1, 2 µmol/kg, lorcaserin alone 0.5 mg/kg, data not shown): significant reduction in response rates
∆9-tetrahydrocannabinol-induced conditioned place preference [4]: blocks
efficacy of a subeffective dose of WAY163909 to suppress motor activity and impulsive action (rats): enhances the efficacy
motor activity, peptide alone (rats): does not suppress motor activity on its own
